Marks after values point to notes of the source that are not given here.

Assay [1] concerns indomethacin induced gastric lesion. Nature of the assay: Inhibition of indomethacin induced gastric lesion. Type of assay: in vivo, rat. Conditions: for Inhibition: 30 min before indomethacin; for Lesion number/stomach ± S.E.M.: 30 min before indomethacin 40 mg/kg s.c. On the procedure:
2. Inhibition of Indomethacin Induced Gastric Lesion Female RG Wistar rats weighing between 120-150 g were used. Before the experiments animals were fasted for 24 hours but received water ad libitum. Test compounds were given orally, 30 minutes later the animals were treated subcutaneously with indomethacin at a dose of 40 mg/kg. Four hours after the irritating indomethacin administration the animals were killed by cervical dislocation. The stomachs were removed, opened along the greater curvature and the hemorrhagic lesions were counted on the glandular stomach.
ED50 value represents the dose which protects the stomach by 50 % from the damaging effect of indomethacin.

Assay [2] relates to stress-induced gastric lesion. Nature of the assay: Inhibition of stress (cold-restraint) induced gastric lesions. Format: in vivo, rat. To be noted: for Lesion score/stomach ± S.E.M.: 30 min before cold-restraint stress, score 0-3; for Inhibition: 30 min before stress. On the procedure:
Female RG Wistar rats weighing between 120-150 g were used. Before the experiments animals were fasted for 24 hours but received water ad libitum. Experiments were carried out according to the technique similar to that described by Senay et al., (1967). [Proc. Soc. Exp. Biol. Med.124,1221, (1967)].
Test compounds were given orally. 30 minutes later the animals were immobilized in plastic restraint boxes then placed into a refrigerator at 4° C.-8° C. temperature. Four hours later the animals were removed from both the refrigerator and the restraint boxes and one hour later they were sacrificed by cervical dislocation. The stomachs were removed, opened along the greater curvature and hemorrhagic lesions were scored by a zero to 3 scale: stomachs free from any damage were given a score of 0, stomachs with only a few hemorrhagic lesion were given a score of 1, stomachs with more lesion numbers than 10 were given a score of 2, and stomachs with a lot of lesions were characterized with a score of 3.
The ED50 were defined as the dose needed to decrease the score of gastric lesions by 50%.

By Inhibition is commonly meant the share of the control response that was lost under treatment. Read a high Inhibition as strong suppression. In the case of zinc hyaluronate [Zinc hyaluronate (M)], the Inhibition in assay [1] (1.0 mg/kg p.o.) was 15.7%; in assay [1] (10.0 mg/kg p.o.) it was 68.1%; in assay [1] (100 mg/kg p.o.), 89.2%; in assay [2] (25 mg/kg p.o.), 41.2%; in assay [2] (50 mg/kg p.o.) it was 76.5%; in assay [2] (100 mg/kg p.o.), 100%. Also, the “Lesion number/stomach ± S.E.M.” value in assay [1] (1.0 mg/kg p.o.) came to 15.6 ± 6.2; in assay [1] (10.0 mg/kg p.o.) it was 5.9 ± 1.9; in assay [1] (100 mg/kg p.o.) it was 2.0 ± 0.9. For the same substance, the “ED50 (dose protecting the stomach by 50% from indomethacin)” value in assay [1] (p.o.) came out at 6.2 mg/kg. The figures for the “Lesion score/stomach ± S.E.M.” value in assay [2] (25 mg/kg p.o.), in assay [2] (50 mg/kg p.o.) and in assay [2] (100 mg/kg p.o.) were 1.0 ± 0.3, 0.4 ± 0.2 and 0*, respectively. Also, in assay [2] (oral administration), the “ED50 (dose decreasing score of gastric lesions by 50%)” value is on record as 29.4 mg/kg.
